According to paper PMC11420707, “Functional and Immunologic Mapping of Domains of the Reticulocyte-Binding Protein Plasmodium vivax PvRBP2a” (The Journal of Infectious Diseases, 2024):
pKd: −log10 of the molar value. Residues, ends and D or L forms follow the SMILES beside them. *: point of attachment. Biotin = O=C1N[C@H]2[C@H](CS[C@H]2CCCCC(=O)*)N1

Experiments:
[1] = target: soluble recombinant CD98 protein (Homo sapiens, UniProt P08195); assay: biochemical
Protocol: PvRBP2a epitopes for reticulocyte and CD98 binding. […] Reticulocytes were blocked with the polyclonal rabbit anti-CD98 antibody (KE020) or a rabbit isotype control antibody for 15 minutes before staining with biotinylated peptide candidates and detection with streptavidin-APC. Reticulocytes were distinguished from normocytes via thiazole orange staining. […] (B) Candidate binding peptides were tested for direct binding to CD98 via biolayer interferometry. 2µM biotinylated peptides were loaded onto streptavidin-coated sensors, which was immersed in a solution of 200nM CD98 to assess binding. (C) Peptides with detectable binding in the initial binding screen were further analyzed for their binding kinetics to CD98 via biolayer interferometry, with 3 independent replicates. The mean and standard error for dissociation constant (KD), on-rate (ka) and off-rate (kd) are given.
Binding sensorgrams were collected on the Octet Red 96e system. Fresh streptavidin sensors were used without any regeneration step. Streptavidin sensor, without biotinylated peptide loading, but with maximum concentration of non-biotinylated CD98 was used as the reference. Kinetic binding assays were performed using Octet Data Acquisition version 10.0.1.3 at 37°C with orbital shaking speed of 1,000 rpm. The assay was carried out in PBS buffer supplemented with 0.05% Tween-20 and 1mg/mL BSA (PBST/BSA). For initial screening, the biosensor was sequentially dipped into wells containing 200µL of solution each: i) baseline, PBST/BSA (30 s), ii) loading, 2µM biotinylated peptide fragment or vehicle control (VC) (5 min), iii) washing, PBST/BSA (30 s), iv) blocking, 25µM biocytin (5 min) to minimize non-specific binding of CD98, v) washing, PBST/BSA (30 s), vi) association, 200 nM non-biotinylated CD98 (30 min) and vii) dissociation, PBST/BSA (15 min).

[2] = tested on: fresh human reticulocytes; assay: Reticulocyte-binding assay (flow cytometry); type: cell-based; conditions: 15 µg/mL biotinylated peptide, 37°C 1 hour; for binding to reticulocytes (% of reticulocytes bound): CD71-enriched cord blood reticulocytes, streptavidin-APC and thiazole orange, 2 independent replicates
Protocol: Fresh human cord blood was enriched for reticulocytes with CD71 microbeads and MACS columns (supplementary methods). Reticulocytes were washed twice with cold phosphate-buffered saline, added to 15 µg/mL of peptide solution, and incubated at 37°C for 1 hour. Reticulocytes were then stained with streptavidin-APC and thiazole orange at 37°C for 1 hour, washed, and acquired on a flow cytometer.
Reticulocytes were enriched from the human cord blood through the selection of CD71+ reticulocytes, using human CD71 microbeads (Miltenyi Biotec, clone AC108.1). Around 1-2ml of blood at 50% haematocrit in PBS was passed through a LS column. After two washing steps using PBS, the reticulocytes were stained with reticulocyte stain (Sigma Aldrich New Methylene Blue) and viewed under the microscope to ensure >80% purity of reticulocytes after selection.

[3] = tested on: sera from donors infected with P vivax; assay: ELISA of peptide antigenicity against donor sera; type: binding, human; conditions: for antigenicity against the seropositive sera mix: individual peptides, pooled sera of 20 P vivax-infected donors 1:267; for antigenic in seropositive cases (cases/donors): individual seropositive sera 1:1000, 20 donors
Source text: We next sought to identify the immunodominant epitopes within the PvRBP2a23-767 CD98-binding domain. Groups of 5 adjacent peptides each were pooled and examined for antigenicity against a mix of sera from 20 donors infected with P vivax (positive by blood smear microscopy) via enzyme-linked immunosorbent assay (Figure 2A). Binding against at least 15 negative donors (non–P vivax exposed) was also examined to control for nonspecific binding. […] To confirm their antigenicity, these peptides were then examined against individual seropositive or seronegative sera. PepLib 3 and PepLib 53 were antigenic in a minority of seropositive cases (7/20 and 2/20, respectively; Supplementary Figure 3B), whereas PepLib 52 was antigenic in most seropositive cases (18/20; Figure 2B). Thus, we identified PepLib 52 (PvRBP2a431-448) as the most reactive linear B-cell epitope in the CD98-binding region of PvRBP2a.
Figure 2. Identification of antigenic and functional linear epitopes of PvRBP2a. A, Peptides were pooled into groups of 5 and coated on streptavidin plates. Pooled sera were added from donors infected with Plasmodium vivax. Following washing, binding of peptides to donor sera was quantified with an anti-human horseradish peroxidase secondary antibody. The baseline was determined to be the mean + 3 SD of the reactivity of the seronegative sample pool to all peptide pools, and peptide pools showing a greater optical density (OD) value were deemed immunoreactive. B, The antigenicity of the antigenic peptide hit, PepLib_52, was confirmed by plasma from 20 donors who were seropositive and 22 who were seronegative. C, The effect of PvRBP2a-derived linear epitope peptides on P vivax invasion was examined on 5 P vivax clinical isolates. Selected CD98-binding PvRBP2a peptide candidates that were in cluster A (PepLib_25, PepLib_49) or cluster B/immunodominant (PepLib_41, PepLib_52), as well as negative control peptides (PepLib_50, PepLib_56) and positive control monoclonal antibodies (anti-Duffy 2C3, anti-CD98 HBJ127), were tested for their ability to inhibit P vivax invasion into reticulocytes. One well without addition of peptide or antibody served as a control for measurement of baseline reinvasion level. *P < .05 by 2-tailed t test with Shapiro-Wilk normality test.
Streptavidin-coated plates (Pierce) were blocked with 1% casein/1% BSA in 0.1% PBST overnight at 4°C, then coated with blocked with PvRBP2a-derived biotinylated peptides at 1:1000 dilution (approximately 15ug/ml) in 0.2% casein/0.2% BSA at room temperature for 1 hour. Pooled or individual donor sera was then applied at 1:267 (pooled) or 1:1000 (individual) dilution in 0.2% casein/0.2% BSA at room temperature for 1 hour, followed by secondary goat […] IgG-HRP at 1:1000 dilution in 0.1% casein/0.1% BSA at room temperature for 1 hour, then TMB substrate (Surmodics, BioFX® TMB One Component HRP Microwell Substrate) incubation for 5 minutes.

[4] = tested on: P vivax invasion into human reticulocytes; assay: Inhibition of P vivax reticulocyte invasion; type: cell-based, Plasmodium vivax; conditions: peptide 100 µg/mL, 5 P vivax clinical isolates, parasitemia at 24 hours versus well without peptide
Protocol: • Antibodies: anti-CD98 mouse IgG1 mAb HBJ127 [8] (Absolute Antibody) and anti-human DARC mouse IG1 mAb 2C3 [9] (Absolute Antibody); working concentration, 25 µg/mL • Cluster A or B PvRBP2a peptides: PepLib 25, 41, 49, 52; working concentration, 100 µg/mL • Control PvRBP2a peptides: PepLib 50, 56; working concentration, 100 µg/mL
Fresh/frozen blood isolates of P vivax were matured in vitro and late stages concentrated with MACS LD columns. Purified infected red blood cells were mixed with cord blood–derived CD71+ reticulocytes (sorted with CD71 beads + MACS LS columns). Infected red blood cell–reticulocyte mixtures were each mixed with an antibody/peptide as stated previously. Wells without peptide/antibody served as controls. All groups were cultivated in vitro as described before. Smears were made at the start (H0) to ensure that ring-stage parasitemia was 0% and 24 hours later (H24) to determine parasitemia (10 000 red blood cells counted). Statistically significant differences were identified by 2-tailed paired t test with Shapiro-Wilk normality test, performed in Prism 10.1.2 (GraphPad).

[5] = target: PepLib_21 (PvRBP2a_(183-200)) (Plasmodium vivax); assay: BLI; biotinylated peptides (2 µM) loaded onto streptavidin-coated sensors, immersed in a solution of 200nM CD98
[6] = target: PepLib_40 (PvRBP2a_(335-352)) (Plasmodium vivax); assay: as above
[7] = target: PepLib_36 (PvRBP2a_(303-320)) (Plasmodium vivax); assay: as above
[8] = target: PepLib_49 (PvRBP2a_(407-424)) (Plasmodium vivax); assay: as above

soluble recombinant CD98 protein, sequence (P08195 218-630): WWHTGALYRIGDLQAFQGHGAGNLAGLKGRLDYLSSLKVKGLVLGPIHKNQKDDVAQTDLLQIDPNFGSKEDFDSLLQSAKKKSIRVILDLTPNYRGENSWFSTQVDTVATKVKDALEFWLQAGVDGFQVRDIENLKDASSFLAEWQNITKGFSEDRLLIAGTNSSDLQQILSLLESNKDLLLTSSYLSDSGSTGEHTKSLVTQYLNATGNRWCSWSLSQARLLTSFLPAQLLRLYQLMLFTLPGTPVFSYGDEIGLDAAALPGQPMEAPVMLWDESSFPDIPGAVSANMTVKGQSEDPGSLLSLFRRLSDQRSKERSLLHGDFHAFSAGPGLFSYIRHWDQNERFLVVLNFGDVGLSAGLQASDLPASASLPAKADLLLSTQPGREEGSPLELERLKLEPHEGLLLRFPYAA

CC[C@H](C)[C@H](NC(=O)[C@H](CCC(=O)O)NC(=O)[C@H](C)NC(=O)[C@H](Cc1ccccc1)NC(=O)[C@H](Cc1ccc(O)cc1)NC(=O)[C@H](CC(N)=O)NC(=O)[C@H](CCSC)NC(=O)[C@H](CCC(N)=O)NC(=O)[C@@H](NC(=O)CNC(=O)[C@H](CO)NC(=O)CNC(=O)[C@H](CO)NC(=O)CCCC[C@@H]1SC[C@@H]2NC(=O)N[C@@H]21)C(C)C)C(=O)N[C@@H](CCCCN)C(=O)N[C@@H](Cc1ccc(O)cc1)C(=O)N[C@@H](Cc1ccc(O)cc1)C(=O)N[C@H](C(=O)N[C@H](C(=O)N[C@@H](Cc1ccc(O)cc1)C(=O)N[C@@H](Cc1c[nH]cn1)C(=O)N[C@@H](Cc1ccc(O)cc1)C(=O)N[C@@H](CCC(=O)O)C(=O)O)[C@@H](C)O)[C@@H](C)CC [PepLib_21] (Biotin-SGSGVQMNYFAEIKYYITYHYE-OH)
pKd [1]: 7.26

CC[C@H](C)[C@H](NC(=O)[C@H](CCC(=O)O)NC(=O)[C@H](Cc1ccc(O)cc1)NC(=O)[C@@H](NC(=O)[C@H](CC(=O)O)NC(=O)[C@@H](NC(=O)[C@H](CCC(=O)O)NC(=O)[C@H](CS)NC(=O)CNC(=O)[C@H](CO)NC(=O)CNC(=O)[C@H](CO)NC(=O)CCCC[C@@H]1SC[C@@H]2NC(=O)N[C@@H]21)[C@@H](C)O)[C@@H](C)O)C(=O)N[C@@H](CCSC)C(=O)N[C@@H](CC(C)C)C(=O)N[C@@H](CCC(=O)O)C(=O)N[C@H](C(=O)N[C@@H](Cc1ccc(O)cc1)C(=O)N[C@H](C(=O)N[C@@H](CCC(=O)O)C(=O)N[C@@H](CCCNC(=N)N)C(=O)N[C@H](C(=O)N[C@@H](CCCCN)C(=O)O)C(C)C)C(C)C)[C@@H](C)CC [PepLib_36] (Biotin-SGSGCETDTYEIMLEIYVERVK-OH)
pKd [1]: 7.32

CC[C@H](C)[C@H](NC(=O)[C@H](CCC(=O)O)NC(=O)[C@H](CCC(N)=O)NC(=O)[C@H](CCCCN)NC(=O)[C@@H](NC(=O)[C@H](CCCCN)NC(=O)[C@H](CC(C)C)NC(=O)[C@H](CCSC)NC(=O)[C@H](CC(C)C)NC(=O)[C@@H](NC(=O)[C@@H](NC(=O)CNC(=O)[C@H](CC(C)C)NC(=O)[C@H](CCC(N)=O)NC(=O)[C@H](CC(C)C)NC(=O)[C@H](CO)NC(=O)[C@H](C)NC(=O)[C@H](CCCCN)NC(=O)CNC(=O)[C@H](CO)NC(=O)CNC(=O)[C@H](CO)NC(=O)CCCC[C@@H]1SC[C@@H]2NC(=O)N[C@@H]21)C(C)C)[C@@H](C)O)C(C)C)C(=O)O [PepLib_40] (Biotin-SGSGKASLQLGVTLMLKVKQEI-OH)
pKd [1]: 7.15

CC(C)C[C@H](NC(=O)[C@H](CO)NC(=O)[C@H](Cc1ccccc1)NC(=O)[C@H](CCCCN)NC(=O)[C@H](Cc1ccc(O)cc1)NC(=O)[C@@H](NC(=O)[C@H](C)NC(=O)[C@H](Cc1ccc(O)cc1)NC(=O)[C@H](Cc1ccccc1)NC(=O)[C@H](CC(N)=O)NC(=O)[C@H](C)NC(=O)[C@H](CO)NC(=O)[C@H](CC(=O)O)NC(=O)[C@H](Cc1ccccc1)NC(=O)[C@H](Cc1ccc(O)cc1)NC(=O)[C@H](CC(C)C)NC(=O)[C@H](CCCCN)NC(=O)[C@H](CCCCN)NC(=O)CNC(=O)[C@H](CO)NC(=O)CNC(=O)[C@H](CO)NC(=O)CCCC[C@@H]1SC[C@@H]2NC(=O)N[C@@H]21)[C@@H](C)O)C(=O)O [PepLib_49] (Biotin-SGSGKKLYFDSANFYATYKFSL-OH)
pKd [1]: 7.04

ADYARYSNLQIIDIKSKY [PepLib_60, biotinylated 18-mer of the PvRBP2a23-767 peptide library]
binding to reticulocytes (% of reticulocytes bound) [2]: ≥ 10%

KLLANLYNKLITYVSEKI [PepLib_53, biotinylated 18-mer of the PvRBP2a23-767 peptide library]
binding to reticulocytes (% of reticulocytes bound) [2]: ≥ 10%
antigenicity against the seropositive sera mix [3]: showed antigenicity
antigenic in seropositive cases (cases/donors) [3]: 2/20

LYFISKSESMISEFEDTF [PepLib_56, biotinylated 18-mer of the PvRBP2a23-767 peptide library; negative control peptide]
inhibition of parasite invasion into reticulocytes, mean [4]: 50%
binding to reticulocytes (in words) [2]: do not show binding to reticulocytes

NFYATYKFSLKRADTTTA [PepLib_50, biotinylated 18-mer of the PvRBP2a23-767 peptide library; negative control peptide]
inhibition of parasite invasion into reticulocytes, mean [4]: 10.4%
binding to reticulocytes (in words) [2]: do not show binding to reticulocytes

PLMSSIQNQINSCVPKKA [PepLib_25, biotinylated 18-mer of the PvRBP2a23-767 peptide library]
inhibition of parasite invasion into reticulocytes, mean [4]: 49.6%
binding to reticulocytes (% of reticulocytes bound) [2]: ≥ 10%

TAALKEKGKLLANLYNKL [PepLib_52, biotinylated 18-mer of the PvRBP2a23-767 peptide library]
inhibition of parasite invasion into reticulocytes, mean [4]: 60.2%
binding to reticulocytes (in words) [2]: did not bind directly to reticulocytes
antigenicity against the seropositive sera mix [3]: showed antigenicity
antigenic in seropositive cases (cases/donors) [3]: 18/20

TLMLKVKQEIDNNVTISA [PepLib_41, biotinylated 18-mer of the PvRBP2a23-767 peptide library]
inhibition of parasite invasion into reticulocytes, mean [4]: −1.1%
binding to reticulocytes (% of reticulocytes bound) [2]: ≥ 10%

WPLQDSLNESDKFEYTNG [PepLib_3, biotinylated 18-mer of the PvRBP2a23-767 peptide library]
antigenicity against the seropositive sera mix [3]: showed antigenicity
antigenic in seropositive cases (cases/donors) [3]: 7/20

YVNYLSTLKASLQLGVTL [PepLib_39, biotinylated 18-mer of the PvRBP2a23-767 peptide library]
binding to reticulocytes (% of reticulocytes bound) [2]: ≥ 10%

soluble recombinant CD98 protein (from UniProt P08195 1-529) (receptor)
pKd [5]: 7.26
pKd [6]: 7.15
pKd [7]: 7.32
pKd [8]: 7.04
